Experimental data as given in PubChem BioAssay (NCI).
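Values below derive from 48-hour exposures of cells grown in 96-well plates, with endpoints linearly interpolated between the two concentrations bracketing the appropriate inhibition level. GI50 is the concentration that inhibits growth by half. TGI marks complete inhibition of growth.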

Tests used:
Assay in all cases: NCI-60 cell line screen, 48 h
A549 NSCLC = test system: A549 NSCLC
ACHN renal = test system: ACHN renal
MCF7 breast = test system: MCF7 breast
SR leukemia = test system: SR leukemia
HT29 colon = test system: HT29 colon
COLO 205 colon = test system: COLO 205 colon
MDA-MB-231 breast = test system: MDA-MB-231 breast
MOLT-4 leukemia = test system: MOLT-4 leukemia
RXF 393 renal = test system: RXF 393 renal
OVCAR-3 ovarian = test system: OVCAR-3 ovarian
RPMI-8226 leukemia = test system: RPMI-8226 leukemia
TK-10 renal = test system: TK-10 renal
SK-MEL-28 melanoma = test system: SK-MEL-28 melanoma
MALME-3M melanoma = test system: MALME-3M melanoma
HOP-92 NSCLC = test system: HOP-92 NSCLC
NCI-H23 lung = test system: NCI-H23 lung
IGROV1 ovarian = test system: IGROV1 ovarian
HOP-62 NSCLC = test system: HOP-62 NSCLC
SF-539 CNS = test system: SF-539 CNS
BT-549 breast = test system: BT-549 breast
SF-295 CNS = test system: SF-295 CNS
SF-268 CNS = test system: SF-268 CNS
MDA-MB-468 breast = test system: MDA-MB-468 breast
HS 578T breast = test system: HS 578T breast
EKVX NSCLC = test system: EKVX NSCLC
UO-31 renal = test system: UO-31 renal
SNB-75 CNS = test system: SNB-75 CNS
LOX IMVI melanoma = test system: LOX IMVI melanoma
SW-620 colon = test system: SW-620 colon
SK-MEL-2 melanoma = test system: SK-MEL-2 melanoma
MDA-MB-435 = test system: MDA-MB-435
SN12C renal = test system: SN12C renal
K-562 leukemia = test system: K-562 leukemia
KM12 colon = test system: KM12 colon
DU-145 prostate = test system: DU-145 prostate
HCC-2998 colon = test system: HCC-2998 colon
UACC-62 melanoma = test system: UACC-62 melanoma
CAKI-1 renal = test system: CAKI-1 renal
NCI-H226 lung = test system: NCI-H226 lung
786-0 renal = test system: 786-0 renal
M14 melanoma = test system: M14 melanoma
UACC-257 melanoma = test system: UACC-257 melanoma
OVCAR-5 ovarian = test system: OVCAR-5 ovarian
SK-MEL-5 melanoma = test system: SK-MEL-5 melanoma
HCT-116 colon = test system: HCT-116 colon
HL-60(TB) leukemia = test system: HL-60(TB) leukemia
SNB-19 CNS = test system: SNB-19 CNS
NCI-H460 lung = test system: NCI-H460 lung
PC-3 prostate = test system: PC-3 prostate
A498 renal = test system: A498 renal
T-47D breast = test system: T-47D breast
HCT-15 colon = test system: HCT-15 colon
OVCAR-4 ovarian = test system: OVCAR-4 ovarian
SK-OV-3 ovarian = test system: SK-OV-3 ovarian
NCI/ADR-RES ovarian = test system: NCI/ADR-RES ovarian
OVCAR-8 ovarian = test system: OVCAR-8 ovarian
CCRF-CEM leukemia = test system: CCRF-CEM leukemia

COc1ccc(OC)c(/C=C/C(=O)c2nc3ccccc3n2Cc2ccc(F)cc2)c1
GI50 (A549 NSCLC): 3.27 µM
TGI (A549 NSCLC): > 100 µM
GI50 (ACHN renal): 2940 nM
TGI (ACHN renal): 9.13 µM
GI50 (MCF7 breast): 2150 nM
TGI (MCF7 breast): > 100 µM
GI50 (SR leukemia): 2200 nM
TGI (SR leukemia): 7.4 µM
GI50 (HT29 colon): 2340 nM
TGI (HT29 colon): 5.43 µM
GI50 (COLO 205 colon): 2610 nM
TGI (COLO 205 colon): 8.08 µM
GI50 (MDA-MB-231 breast): 2000 nM
TGI (MDA-MB-231 breast): 4.43 µM
GI50 (MOLT-4 leukemia): 2150 nM
TGI (MOLT-4 leukemia): 7.98 µM
GI50 (RXF 393 renal): 1920 nM
TGI (RXF 393 renal): 4.41 µM
GI50 (OVCAR-3 ovarian): 2170 nM
TGI (OVCAR-3 ovarian): 5.6 µM
GI50 (RPMI-8226 leukemia): 2050 nM
TGI (RPMI-8226 leukemia): 5.89 µM
GI50 (TK-10 renal): 3260 nM
TGI (TK-10 renal): 17 µM
GI50 (SK-MEL-28 melanoma): 2180 nM
TGI (SK-MEL-28 melanoma): 4.68 µM
GI50 (MALME-3M melanoma): 3000 nM
TGI (MALME-3M melanoma): 14.3 µM
GI50 (HOP-92 NSCLC): 2880 nM
TGI (HOP-92 NSCLC): 43.8 µM
GI50 (NCI-H23 lung): 2240 nM
TGI (NCI-H23 lung): 6.62 µM
GI50 (IGROV1 ovarian): 3010 nM
TGI (IGROV1 ovarian): 11.1 µM
GI50 (HOP-62 NSCLC): 3.08 µM
TGI (HOP-62 NSCLC): 11.2 µM
GI50 (SF-539 CNS): 2140 nM
TGI (SF-539 CNS): 4.67 µM
GI50 (BT-549 breast): 2.61 µM
TGI (BT-549 breast): 7.6 µM
GI50 (SF-295 CNS): 3050 nM
TGI (SF-295 CNS): 13.2 µM
GI50 (SF-268 CNS): 3500 nM
TGI (SF-268 CNS): > 100 µM
GI50 (MDA-MB-468 breast): 2110 nM
TGI (MDA-MB-468 breast): 5.8 µM
GI50 (HS 578T breast): 3120 nM
TGI (HS 578T breast): > 100 µM
GI50 (EKVX NSCLC): 2770 nM
TGI (EKVX NSCLC): > 100 µM
GI50 (UO-31 renal): 2370 nM
TGI (UO-31 renal): 8.61 µM
GI50 (SNB-75 CNS): 1540 nM
TGI (SNB-75 CNS): 6.66 µM
GI50 (LOX IMVI melanoma): 1560 nM
TGI (LOX IMVI melanoma): 3.06 µM
GI50 (SW-620 colon): 2030 nM
TGI (SW-620 colon): 4.63 µM
GI50 (SK-MEL-2 melanoma): 1940 nM
TGI (SK-MEL-2 melanoma): 4.19 µM
GI50 (MDA-MB-435): 2020 nM
TGI (MDA-MB-435): 4.94 µM
GI50 (SN12C renal): 3470 nM
TGI (SN12C renal): > 100 µM
GI50 (K-562 leukemia): 2520 nM
TGI (K-562 leukemia): > 100 µM
GI50 (KM12 colon): 2520 nM
TGI (KM12 colon): 7.14 µM
GI50 (DU-145 prostate): 3530 nM
TGI (DU-145 prostate): > 100 µM
GI50 (HCC-2998 colon): 1950 nM
TGI (HCC-2998 colon): 3.93 µM
GI50 (UACC-62 melanoma): 1930 nM
TGI (UACC-62 melanoma): 5.06 µM
GI50 (CAKI-1 renal): 3080 nM
TGI (CAKI-1 renal): > 100 µM
GI50 (NCI-H226 lung): 4.03 µM
TGI (NCI-H226 lung): 25.5 µM
GI50 (786-0 renal): 2930 nM
TGI (786-0 renal): 9.51 µM
GI50 (M14 melanoma): 2670 nM
TGI (M14 melanoma): 9.56 µM
GI50 (UACC-257 melanoma): 4.03 µM
TGI (UACC-257 melanoma): 27.3 µM
GI50 (OVCAR-5 ovarian): 2450 nM
TGI (OVCAR-5 ovarian): 5.56 µM
GI50 (SK-MEL-5 melanoma): 2730 nM
TGI (SK-MEL-5 melanoma): 10.1 µM
GI50 (HCT-116 colon): 1610 nM
TGI (HCT-116 colon): 3.06 µM
GI50 (HL-60(TB) leukemia): 1570 nM
TGI (HL-60(TB) leukemia): 5.93 µM
GI50 (SNB-19 CNS): 2310 nM
TGI (SNB-19 CNS): 6.08 µM
GI50 (NCI-H460 lung): 1670 nM
TGI (NCI-H460 lung): 4 µM
GI50 (PC-3 prostate): 3.82 µM
TGI (PC-3 prostate): > 100 µM
GI50 (A498 renal): 34.8 µM
TGI (A498 renal): > 100 µM
GI50 (T-47D breast): 2950 nM
TGI (T-47D breast): > 100 µM
GI50 (HCT-15 colon): 1620 nM
TGI (HCT-15 colon): 3.69 µM
GI50 (OVCAR-4 ovarian): 5.02 µM
TGI (OVCAR-4 ovarian): > 100 µM
GI50 (SK-OV-3 ovarian): 11.4 µM
TGI (SK-OV-3 ovarian): > 100 µM

Cn1cc(-c2cc3nc(-c4c[nH]c5ccccc45)cc(N)n3n2)c2ccccc21
GI50 (ACHN renal): 1760 nM
TGI (ACHN renal): 3.22 µM
GI50 (MCF7 breast): 1680 nM
TGI (MCF7 breast): 3.39 µM
GI50 (SR leukemia): 1950 nM
TGI (SR leukemia): 5.9 µM
GI50 (COLO 205 colon): 1750 nM
TGI (COLO 205 colon): 3.29 µM
GI50 (NCI/ADR-RES ovarian): 1780 nM
TGI (NCI/ADR-RES ovarian): 3.41 µM
GI50 (MDA-MB-231 breast): 1940 nM
TGI (MDA-MB-231 breast): 3.35 µM
GI50 (MOLT-4 leukemia): 1770 nM
TGI (MOLT-4 leukemia): 3.92 µM
GI50 (OVCAR-3 ovarian): 1740 nM
TGI (OVCAR-3 ovarian): 3.4 µM
GI50 (RPMI-8226 leukemia): 2110 nM
TGI (RPMI-8226 leukemia): 5.07 µM
GI50 (TK-10 renal): 1770 nM
TGI (TK-10 renal): 4.65 µM
GI50 (SK-MEL-28 melanoma): 1740 nM
TGI (SK-MEL-28 melanoma): 3.18 µM
GI50 (MALME-3M melanoma): 1870 nM
TGI (MALME-3M melanoma): 3.37 µM
GI50 (HOP-92 NSCLC): 1940 nM
TGI (HOP-92 NSCLC): 3.75 µM
GI50 (NCI-H23 lung): 1750 nM
TGI (NCI-H23 lung): 3.32 µM
GI50 (IGROV1 ovarian): 1770 nM
TGI (IGROV1 ovarian): 3.26 µM
GI50 (OVCAR-8 ovarian): 1900 nM
TGI (OVCAR-8 ovarian): 3.97 µM
GI50 (SF-539 CNS): 1750 nM
TGI (SF-539 CNS): 3.13 µM
GI50 (BT-549 breast): 12.4 µM
TGI (BT-549 breast): 54.4 µM
GI50 (SF-295 CNS): 1640 nM
TGI (SF-295 CNS): 3.19 µM
GI50 (SF-268 CNS): 2400 nM
TGI (SF-268 CNS): 7.17 µM
GI50 (MDA-MB-468 breast): 1550 nM
TGI (MDA-MB-468 breast): 2.93 µM
GI50 (HS 578T breast): 2550 nM
TGI (HS 578T breast): 6.28 µM
GI50 (EKVX NSCLC): 1650 nM
TGI (EKVX NSCLC): 3.16 µM
GI50 (CCRF-CEM leukemia): 1950 nM
TGI (CCRF-CEM leukemia): 4.2 µM
GI50 (UO-31 renal): 1540 nM
TGI (UO-31 renal): 2.93 µM
GI50 (SNB-75 CNS): 1740 nM
TGI (SNB-75 CNS): 3.93 µM
GI50 (LOX IMVI melanoma): 1860 nM
TGI (LOX IMVI melanoma): 3.35 µM
GI50 (SK-MEL-2 melanoma): 1870 nM
TGI (SK-MEL-2 melanoma): 3.73 µM
GI50 (MDA-MB-435): 1780 nM
TGI (MDA-MB-435): 3.46 µM
GI50 (SN12C renal): 1870 nM
TGI (SN12C renal): 3.49 µM
GI50 (K-562 leukemia): 1740 nM
TGI (K-562 leukemia): 3.54 µM
GI50 (DU-145 prostate): 2040 nM
TGI (DU-145 prostate): 4.73 µM
GI50 (HCC-2998 colon): 1650 nM
TGI (HCC-2998 colon): 3.06 µM
GI50 (UACC-62 melanoma): 1640 nM
TGI (UACC-62 melanoma): 3.06 µM
GI50 (CAKI-1 renal): 1680 nM
TGI (CAKI-1 renal): 3.31 µM
GI50 (NCI-H226 lung): 2.2 µM
TGI (NCI-H226 lung): 4.98 µM
GI50 (786-0 renal): 1510 nM
TGI (786-0 renal): 2.94 µM
GI50 (M14 melanoma): 1750 nM
TGI (M14 melanoma): 3.34 µM
GI50 (OVCAR-5 ovarian): 1820 nM
TGI (OVCAR-5 ovarian): 3.3 µM
GI50 (SK-MEL-5 melanoma): 1950 nM
TGI (SK-MEL-5 melanoma): 4.1 µM
GI50 (HCT-116 colon): 1800 nM
TGI (HCT-116 colon): 3.3 µM
GI50 (HL-60(TB) leukemia): 1500 nM
TGI (HL-60(TB) leukemia): 3.22 µM
GI50 (SNB-19 CNS): 3430 nM
TGI (SNB-19 CNS): 17.3 µM
GI50 (A498 renal): 19.7 µM
TGI (A498 renal): 44.6 µM
GI50 (HCT-15 colon): 1600 nM
TGI (HCT-15 colon): 3.01 µM
GI50 (SK-OV-3 ovarian): 10.5 µM
TGI (SK-OV-3 ovarian): 46.8 µM
